The values that follow come from paper PMC6585443 (ACS infectious diseases, 2018).

In general, logD refers to the decadic logarithm of the distribution of all forms, ionised or not, between an organic phase and buffer at a given pH. A higher logD goes with a more lipophilic compound. As a reminder, the solubility is the dissolved amount per volume that the medium holds. Lower therefore signals a poorly soluble substance. As usually defined, the microsomal CLint is the rate of metabolic loss divided by the concentration.

The test system of one series is P. falciparum W2. Put plainly: P. falciparum W2 antimalarial activity. It counts as cell-based, Plasmodium falciparum. Particulars: less potent against W2 (CQ resistant) than D6.
The test system of the next series is P. falciparum D6. Put plainly: P. falciparum D6 antimalarial activity. The class given is cell-based, Plasmodium falciparum. Particulars: D6 strain.
The next series in a line: LogD7.4. It counts as physicochemical. Particulars: pH 7.4.
Series [1] is described as follows: aqueous solubility pH 7.4. It counts as physicochemical.
A short description of series [2]: rat hepatocyte intrinsic clearance. It counts as in vitro ADME. Particulars: rat hepatocytes.
Series [3] is described as follows: human liver microsome intrinsic clearance. It counts as in vitro ADME. Particulars: liver microsomes. Background: Liver microsomes are vesicles of endoplasmic reticulum, rich in cytochrome P450 enzymes.
The subject of series [4] is human kinases involved in cellular proliferation. Particulars: cited from earlier work.
The next series has as its target Abl (Homo sapiens, UniProt P00519). As to the kind of experiment: human kinase panel at 5 μM. It counts as biochemical. Particulars: test concentration 5 μM.
Another series has as its target MAP4K4 (Homo sapiens, UniProt O95819). Put plainly: human kinase panel at 5 μM. It counts as biochemical. Particulars: test concentration 5 μM.
The target in another series is MNK2 (Homo sapiens, UniProt Q9HBH9). As to the kind of experiment: human kinase panel at 5 μM. The class given is biochemical. Particulars: test concentration 5 μM.
Another series has as its target T1, Aurora A (Homo sapiens, UniProt O14965).
T1 sequence (O14965 1-403): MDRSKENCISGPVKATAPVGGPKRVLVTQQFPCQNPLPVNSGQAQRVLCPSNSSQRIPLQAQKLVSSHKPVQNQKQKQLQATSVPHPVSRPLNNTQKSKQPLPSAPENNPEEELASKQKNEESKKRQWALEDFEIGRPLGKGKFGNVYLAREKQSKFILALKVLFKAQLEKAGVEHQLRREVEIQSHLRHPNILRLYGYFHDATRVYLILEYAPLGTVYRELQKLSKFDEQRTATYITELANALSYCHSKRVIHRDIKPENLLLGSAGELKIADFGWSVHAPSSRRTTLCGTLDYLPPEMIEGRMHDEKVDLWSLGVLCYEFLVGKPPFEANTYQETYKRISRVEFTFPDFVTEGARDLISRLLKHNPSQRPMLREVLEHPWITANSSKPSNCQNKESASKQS
As to the kind of experiment: human kinase panel at 5 μM. It counts as biochemical. Particulars: test concentration 5 μM.

The next series concerns panel of human kinases. As to the kind of experiment: human kinase panel at 5 μM. It counts as biochemical. Particulars: test concentration 5 μM.
A further series has as its target KDR (Homo sapiens, UniProt P35968). As to the kind of experiment: human kinase panel at 5 μM. It counts as biochemical. Particulars: test concentration 5 μM.
Another series concerns P. berghei. As to the kind of experiment: modified Thompson in vivo infection model. Particulars: mice, intraperitoneal 160 mg/kg/day × 3 days; for parasitemia: days 3 to 5 post-infection.
A further series has as its target EGFR (Homo sapiens, UniProt P00533). Put plainly: human kinase panel at 5 μM. It counts as biochemical. Particulars: test concentration 5 μM.
The next series relates to P. falciparum C235. As to the kind of experiment: P. falciparum C235 antimalarial activity. The class given is cell-based, Plasmodium falciparum. Particulars: less potent against C235 (CQ, MQ, pyrimethamine resistant) than D6.
The mark [5] stands for this setting: aqueous solution at pH 7.4, pH 7.4, aqueous buffer.

≈ marks a conversion by molar mass, not a printed value.

Sequence of MNK2 (Q9HBH9 whole entry): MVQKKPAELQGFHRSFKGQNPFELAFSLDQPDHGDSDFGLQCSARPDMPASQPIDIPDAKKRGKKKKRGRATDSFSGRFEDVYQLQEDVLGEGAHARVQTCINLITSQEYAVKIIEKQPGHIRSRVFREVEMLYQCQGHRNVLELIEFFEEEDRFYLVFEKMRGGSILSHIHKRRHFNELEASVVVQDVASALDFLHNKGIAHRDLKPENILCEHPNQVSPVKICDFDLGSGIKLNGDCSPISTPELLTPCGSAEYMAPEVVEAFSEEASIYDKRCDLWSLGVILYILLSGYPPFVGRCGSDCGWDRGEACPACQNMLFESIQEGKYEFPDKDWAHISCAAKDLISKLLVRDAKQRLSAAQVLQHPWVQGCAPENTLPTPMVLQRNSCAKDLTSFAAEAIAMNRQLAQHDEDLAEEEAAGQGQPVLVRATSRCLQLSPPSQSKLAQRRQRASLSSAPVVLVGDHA
Sequence of KDR (P35968 20-1356): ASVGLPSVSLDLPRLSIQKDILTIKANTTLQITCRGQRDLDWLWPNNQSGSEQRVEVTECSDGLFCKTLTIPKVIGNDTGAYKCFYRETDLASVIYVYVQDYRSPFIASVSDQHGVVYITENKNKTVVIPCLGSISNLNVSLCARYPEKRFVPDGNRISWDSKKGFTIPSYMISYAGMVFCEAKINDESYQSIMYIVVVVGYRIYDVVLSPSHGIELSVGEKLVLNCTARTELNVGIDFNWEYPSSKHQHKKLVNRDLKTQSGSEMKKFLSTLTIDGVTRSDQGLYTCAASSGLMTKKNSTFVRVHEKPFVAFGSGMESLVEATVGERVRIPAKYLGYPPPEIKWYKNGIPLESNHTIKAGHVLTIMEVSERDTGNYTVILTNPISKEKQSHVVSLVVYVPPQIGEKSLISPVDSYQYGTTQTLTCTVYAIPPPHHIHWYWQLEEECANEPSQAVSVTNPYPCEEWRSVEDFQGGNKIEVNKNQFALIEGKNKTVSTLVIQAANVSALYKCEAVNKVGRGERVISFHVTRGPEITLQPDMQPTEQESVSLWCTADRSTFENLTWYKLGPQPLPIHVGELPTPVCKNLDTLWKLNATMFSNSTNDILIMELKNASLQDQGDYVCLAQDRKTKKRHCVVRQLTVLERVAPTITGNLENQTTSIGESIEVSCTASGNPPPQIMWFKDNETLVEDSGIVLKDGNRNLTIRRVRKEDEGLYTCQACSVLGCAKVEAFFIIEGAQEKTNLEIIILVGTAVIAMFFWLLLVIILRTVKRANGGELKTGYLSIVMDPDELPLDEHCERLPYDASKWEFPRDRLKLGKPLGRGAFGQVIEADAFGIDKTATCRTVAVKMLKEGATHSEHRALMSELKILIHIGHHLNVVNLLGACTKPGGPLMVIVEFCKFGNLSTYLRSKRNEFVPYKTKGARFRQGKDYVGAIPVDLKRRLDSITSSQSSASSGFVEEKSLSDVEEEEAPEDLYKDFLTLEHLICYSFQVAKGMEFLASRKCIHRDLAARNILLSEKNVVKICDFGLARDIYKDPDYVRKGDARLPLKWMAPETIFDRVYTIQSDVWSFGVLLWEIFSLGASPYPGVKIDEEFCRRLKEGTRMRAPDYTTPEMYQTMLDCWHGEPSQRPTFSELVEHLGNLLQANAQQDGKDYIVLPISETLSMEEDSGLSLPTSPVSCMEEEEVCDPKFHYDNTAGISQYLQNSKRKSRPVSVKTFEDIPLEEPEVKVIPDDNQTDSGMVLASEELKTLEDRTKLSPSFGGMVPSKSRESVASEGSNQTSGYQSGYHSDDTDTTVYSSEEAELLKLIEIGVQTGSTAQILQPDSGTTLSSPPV
Sequence of MAP4K4 (O95819 whole entry): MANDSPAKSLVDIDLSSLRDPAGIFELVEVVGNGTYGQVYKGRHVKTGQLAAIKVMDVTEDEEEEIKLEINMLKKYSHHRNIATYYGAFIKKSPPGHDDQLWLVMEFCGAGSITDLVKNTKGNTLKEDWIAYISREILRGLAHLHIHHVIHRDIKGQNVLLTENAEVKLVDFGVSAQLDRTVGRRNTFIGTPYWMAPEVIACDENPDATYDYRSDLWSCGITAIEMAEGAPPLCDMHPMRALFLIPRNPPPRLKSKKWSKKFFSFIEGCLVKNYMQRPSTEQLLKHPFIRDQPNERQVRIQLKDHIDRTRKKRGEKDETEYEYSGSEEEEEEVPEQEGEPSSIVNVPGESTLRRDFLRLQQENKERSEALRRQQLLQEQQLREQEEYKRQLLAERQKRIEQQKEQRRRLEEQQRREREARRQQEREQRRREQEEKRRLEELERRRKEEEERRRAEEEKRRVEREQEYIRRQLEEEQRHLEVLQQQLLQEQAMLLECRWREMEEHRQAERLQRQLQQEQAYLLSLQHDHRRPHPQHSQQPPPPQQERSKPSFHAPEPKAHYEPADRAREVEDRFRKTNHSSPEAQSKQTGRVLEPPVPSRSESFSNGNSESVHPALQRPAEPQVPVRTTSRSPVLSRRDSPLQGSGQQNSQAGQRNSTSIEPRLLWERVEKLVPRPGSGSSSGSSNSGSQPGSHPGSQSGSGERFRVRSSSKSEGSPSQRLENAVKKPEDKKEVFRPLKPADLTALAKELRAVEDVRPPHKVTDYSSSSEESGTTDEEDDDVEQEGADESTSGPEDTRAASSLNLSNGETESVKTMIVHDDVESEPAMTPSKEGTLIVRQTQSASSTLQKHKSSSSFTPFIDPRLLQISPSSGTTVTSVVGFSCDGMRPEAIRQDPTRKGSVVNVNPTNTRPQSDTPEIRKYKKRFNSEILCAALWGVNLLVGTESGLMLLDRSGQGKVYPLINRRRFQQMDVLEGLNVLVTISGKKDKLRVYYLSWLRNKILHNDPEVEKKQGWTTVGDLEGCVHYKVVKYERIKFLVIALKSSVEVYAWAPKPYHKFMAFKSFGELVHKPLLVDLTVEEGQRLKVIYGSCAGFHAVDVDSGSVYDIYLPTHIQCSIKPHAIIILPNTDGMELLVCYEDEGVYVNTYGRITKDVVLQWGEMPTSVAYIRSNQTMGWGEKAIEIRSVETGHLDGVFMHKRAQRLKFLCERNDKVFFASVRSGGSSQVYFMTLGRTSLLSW
Sequence of EGFR (P00533 25-1210): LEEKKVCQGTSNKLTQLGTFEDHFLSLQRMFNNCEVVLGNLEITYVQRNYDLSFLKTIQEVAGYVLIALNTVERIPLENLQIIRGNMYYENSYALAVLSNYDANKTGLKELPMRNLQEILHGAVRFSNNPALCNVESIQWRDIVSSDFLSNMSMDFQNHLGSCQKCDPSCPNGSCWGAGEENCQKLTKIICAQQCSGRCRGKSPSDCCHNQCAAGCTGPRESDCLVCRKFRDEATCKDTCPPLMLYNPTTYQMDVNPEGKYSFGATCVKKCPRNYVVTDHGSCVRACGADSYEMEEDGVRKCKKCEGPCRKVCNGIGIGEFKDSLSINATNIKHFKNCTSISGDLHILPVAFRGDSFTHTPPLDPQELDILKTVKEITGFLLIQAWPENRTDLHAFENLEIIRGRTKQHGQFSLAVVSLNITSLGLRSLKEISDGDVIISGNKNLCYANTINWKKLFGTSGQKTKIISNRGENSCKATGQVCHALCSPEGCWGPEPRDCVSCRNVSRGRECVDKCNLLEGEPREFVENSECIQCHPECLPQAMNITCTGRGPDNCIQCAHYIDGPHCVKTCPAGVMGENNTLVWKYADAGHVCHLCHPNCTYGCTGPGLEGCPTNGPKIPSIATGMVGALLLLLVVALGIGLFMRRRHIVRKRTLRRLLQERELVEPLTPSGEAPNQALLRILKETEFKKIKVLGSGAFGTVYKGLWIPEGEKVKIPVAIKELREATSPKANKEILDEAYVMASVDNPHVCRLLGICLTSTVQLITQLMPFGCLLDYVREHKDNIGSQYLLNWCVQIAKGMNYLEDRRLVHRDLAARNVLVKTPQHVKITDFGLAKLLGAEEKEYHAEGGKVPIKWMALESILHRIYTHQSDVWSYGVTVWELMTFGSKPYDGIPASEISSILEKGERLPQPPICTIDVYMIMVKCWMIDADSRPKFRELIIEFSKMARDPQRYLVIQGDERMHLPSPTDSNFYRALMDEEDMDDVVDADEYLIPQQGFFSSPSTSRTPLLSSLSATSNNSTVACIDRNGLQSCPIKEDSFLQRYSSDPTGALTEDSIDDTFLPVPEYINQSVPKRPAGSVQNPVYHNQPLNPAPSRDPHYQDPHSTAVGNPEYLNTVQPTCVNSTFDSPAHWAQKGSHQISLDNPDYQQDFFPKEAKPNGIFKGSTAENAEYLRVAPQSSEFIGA

With `CC(C)(C)OC(=O)Nc1ccc2c(Nc3ccc(OCc4cccc(F)c4)c(Cl)c3)ccnc2c1` [Compound 36, Tert-butyl (4-((3-Chloro-4-((3-fluorobenzyl)oxy)phenyl)amino)quinolin-7-yl)carbamate], the “activity against W2 strain relative to D6 (fold)” value in the series with P. falciparum W2 is recorded as > 3 fold. Moreover, the “reduction in potency compared to 3” value with P. falciparum D6 is recorded as “almost three-fold drop in potency”.
Take `COc1ccc(Nc2ccnc3cc(-c4cn[nH]c4)ccc23)cc1Cl` [Compound 44, N-(3-Chloro-4-methoxyphenyl)-7-(1H-pyrazol-4-yl)quinolin-4-amine]: the logD in the series “LogD7.4” was 3.5. The same compound gave a solubility in series [1] (setting [5]) of 2 µM (≈ 0.702 µg/mL). The “Rat Hepatocyte CLint” value in [2] is 5.0 μL/min/10^6. Besides, the microsomal CLint in [3] was 8 µL/min/mg.
In “LogD7.4”, `CN1CCN(c2ncc(-c3ccc4c(Nc5ccc6[nH]nnc6c5)ccnc4c3)cn2)CC1` [Compound 42, N-(1H-Benzo[d][1,2,3]triazol-5-yl)-7-(2-(4-methylpiperazin-1-yl)pyrimidin-5-yl)quinolin-4-amine] yielded a logD of 3.3. In addition, in [1] (setting [5]), the solubility is < 1 µM. Further, the “Rat Hepatocyte CLint” value in series [2] is on record as 51 μL/min/10^6. Besides, the microsomal CLint in series [3] stood at 120 µL/min/mg.
On to `Cc1ccc(Nc2ccnc3cc(-c4ccc(S(=O)(=O)N5CCN(C)CC5)cc4)ccc23)cc1Cl` [Compound 11, N-(3-Chloro-4-methylphenyl)-7-{4-[(4-methylpiperazin-1-yl)sulfonyl]phenyl}quinolin-4-amine], for which the “activity against W2 strain relative to D6 (fold)” value in the series with P. falciparum W2 was > 3 fold.
`c1cnc(Nc2ccnc3cc(-c4cn[nH]c4)ccc23)cn1` [Compound 43, N-(Pyrazin-2-yl)-7-(1H-pyrazol-4-yl)quinolin-4-amine]: the logD in the series “LogD7.4” is 2.6. In [1] (setting [5]), the solubility worked out at 1 µM (≈ 0.288 µg/mL). In [2], the “Rat Hepatocyte CLint” value is on record as 5.0 μL/min/10^6. The compound further displayed an intrinsic metabolic clearance (microsomal CLint) in [3] of 130 µL/min/mg.
As to `COc1ccc(Nc2ccnc3cc(Nc4nccc(N5CCN(C)CC5)n4)ccc23)cc1Cl` [Compound 47, N^4-(3-Chloro-4-methoxyphenyl)-N^7-(4-(4-methylpiperazin-1-yl)pyrimidin-2-yl)quinoline-4,7-diamine], the log distribution coefficient (logD) in the series “LogD7.4” came to 3.3. The same compound showed a solubility in series [1] (setting [5]) of 570 µM (≈ 271 µg/mL). In addition, in series [2], the “Rat Hepatocyte CLint” value was 7.2 μL/min/10^6.
As to `CN1CCN(S(=O)(=O)c2ccc(-c3ccc4c(Nc5cnccn5)ccnc4c3)cc2)CC1` [Compound 14, 7-{4-[(4-Methylpiperazin-1-yl)sulfonyl]phenyl}-N-(pyrazin-2-yl)quinolin-4-amine], the “activity against W2 strain relative to D6 (fold)” value in the series with P. falciparum W2 was > 3 fold.
Take `COc1ccc(Nc2ccnc3cc(-c4cnc(N5CCN(C)CC5)nc4)ccc23)cc1Cl` [Compound 41, N-(3-Chloro-4-methoxyphenyl)-7-(2-(4-methylpiperazin-1-yl)pyrimidin-5-yl)quinolin-4-amine]: the solubility in series [1] (setting [5]) is < 1 µM. Further, the “Rat Hepatocyte CLint” value in series [2] came out at 45 μL/min/10^6.
Turning to `Cc1cc(Nc2ccnc3cc(-c4ccc(S(=O)(=O)N5CCN(C)CC5)cc4)ccc23)sn1` [Compound 24, N-(3-Methyl-1,2-thiazol-5-yl)-7-{4-[(4-methylpiperazin-1-yl)sulfonyl]phenyl}quinolin-4-amine], in the series with P. falciparum W2, the “activity against W2 strain relative to D6 (fold)” value is > 3 fold.
Turning to `CN1CCN(c2ccc(Nc3ccc4c(Nc5cnccn5)ccnc4c3)cc2)CC1` [Compound 45, N^7-(4-(4-Methylpiperazin-1-yl)phenyl)-N^4-(pyrazin-2-yl)quinoline-4,7-diamine], in “LogD7.4”, the logD is 2.2. Moreover, in [2], the “Rat Hepatocyte CLint” value is listed as 10 μL/min/10^6.
For the compound `CN1CCN(c2nccc(Nc3ccc4c(Nc5cnccn5)ccnc4c3)n2)CC1` [Compound 48, N^7-(2-(4-Methylpiperazin-1-yl)pyrimidin-4-yl)-N^4-(pyrazin-2-yl)quinoline-4,7-diamine], in “LogD7.4”, the logD worked out at 2.9.
Regarding `CS(=O)(=O)CCNCc1ccc(-c2ccc3ncnc(Nc4ccc(OCc5cccc(F)c5)c(Cl)c4)c3c2)o1` [Compound 1, lapatinib], in [4], the “selectivity versus numerous human kinases” value is > 300 fold.
For the compound `Cc1nnc(Nc2ccnc3cc(-c4ccc(S(=O)(=O)N5CCN(C)CC5)cc4)ccc23)nc1C` [Compound 23, N-(Dimethyl-1,2,4-triazin-3-yl)-7-{4-[(4-methylpiperazin-1-yl)sulfonyl]phenyl}quinolin-4-amine], the “activity against W2 strain relative to D6 (fold)” value in the series on P. falciparum W2 is recorded as > 3 fold.
On to `CN1CCN(c2ncc(-c3ccc4c(Nc5cnccn5)ccnc4c3)cn2)CC1` [Compound 40, 7-(2-(4-Methylpiperazin-1-yl)pyrimidin-5-yl)-N-(pyrazin-2-yl)quinolin-4-amine], for which the “inhibition of Abl” value against Abl is reported as “significant inhibition”. Further, the “inhibition of MAP4K4” value against MAP4K4 is on record as “significant inhibition”. The “inhibition of MNK2” value against MNK2 is “significant inhibition”. The “inhibition of Aurora A” value at Aurora A was “significant inhibition”. In the series with panel of human kinases, the “number of kinases with insignificant inhibition” value is recorded as 28 kinases and the “number of kinases with moderate to weak inhibition” value turned out to be 10 kinases. For the same compound, the “inhibition of KDR” value at KDR was “significant inhibition”. Further, in the series with P. berghei, the parasitemia result is reported as “reduction in parasitemia”. Moreover, in series [2], the “Rat Hepatocyte CLint” value amounted to 130 μL/min/10^6. The “inhibition of EGFR” value against EGFR is reported as “significant inhibition”.
Turning to `CN1CCN(S(=O)(=O)c2ccc(-c3ccc4c(Nc5ncc(Cl)cn5)ccnc4c3)cc2)CC1` [Compound 21, N-(5-Chloropyrimidin-2-yl)-7-{4-[(4-methylpiperazin-1-yl)sulfonyl]phenyl}quinolin-4-amine], in the series with P. falciparum W2, the “activity against W2 strain relative to D6 (fold)” value was > 3 fold. The “activity against C235 strain relative to D6 (fold)” value in the series on P. falciparum C235 was > 3 fold.
Take `CN1CCN(S(=O)(=O)c2ccc(-c3ccc4c(Nc5cccnc5)ccnc4c3)cc2)CC1` [Compound 12, 7-{4-[(4-Methylpiperazin-1-yl)sulfonyl]phenyl}-N-(pyridin-3-yl)quinolin-4-amine]: the “reduction in potency compared to 3” value in the series with P. falciparum D6 turned out to be 10 fold.
Regarding `COc1ccc(Nc2ccnc3cc(-c4ccc(S(=O)(=O)N5CCN(C)CC5)cc4)ccc23)cc1Cl` [Compound 7, N-(3-Chloro-4-methoxyphenyl)-7-{4-[(4-methylpiperazin-1-yl)sulfonyl]phenyl}quinolin-4-amine], the solubility in [1] (aqueous medium, pH 7.4, aqueous buffer) turned out to be 100 µM (≈ 52.3 µg/mL). Moreover, the “activity against W2 strain relative to D6 (fold)” value with P. falciparum W2 was > 3 fold. In the series on P. berghei, the “life extension compared to the control group” value came to 5 days and the parasitemia result is listed as “reduction in parasitemia”.
For the compound `CN1CCN(c2nsnc2-c2ccc3c(Nc4ccc(OCc5cccc(F)c5)c(Cl)c4)ccnc3c2)CC1` [Compound 30, N-(3-Chloro-4-((3-fluorobenzyl)oxy)phenyl)-7-(4-(4-methylpiperazin-1-yl)-1,2,5-thiadiazol-3-yl)quinolin-4-amine], in the series on P. falciparum D6, the “reduction in potency compared to 3” value was “six-fold reduction in potency”.
`CN1CCN(c2ccnc(Nc3ccc4c(Nc5cnccn5)ccnc4c3)n2)CC1` [Compound 46, N^7-(4-(4-Methylpiperazin-1-yl)pyrimidin-2-yl)-N^4-(pyrazin-2-yl)quinoline-4,7-diamine]: in “LogD7.4”, the logD turned out to be 2.8. Moreover, in [2], the “Rat Hepatocyte CLint” value was 9.3 μL/min/10^6.
Consider `COc1ccc(Nc2ccnc3cc(Nc4ccnc(N5CCN(C)CC5)n4)ccc23)cc1Cl` [Compound 49, N^4-(3-Chloro-4-methoxyphenyl)-N^7-(2-(4-methylpiperazin-1-yl)pyrimidin-4-yl)quinoline-4,7-diamine], for which, in [2], the “Rat Hepatocyte CLint” value is reported as 2.3 μL/min/10^6. For the same compound, in series [3], the microsomal CLint worked out at 45 µL/min/mg.
Consider `CN1CCN(S(=O)(=O)c2ccc(-c3ccc4c(Nc5cnc(C#N)cn5)ccnc4c3)cc2)CC1` [Compound 19, 5-[(7-{4-[(4-Methylpiperazin-1-yl)sulfonyl]phenyl}quinolin-4-yl)amino]pyrazine-2-carbonitrile], for which the “activity against W2 strain relative to D6 (fold)” value in the series on P. falciparum W2 was > 3 fold.
